Experimental data: patent EP4653448A1, “COMPOUND FOR RNA CAPPING AND USE THEREOF” (Guangzhou Henovcom Bioscience Co. Ltd., priority 2023, dated 2024)

Experiments:
[1] = biological target: streptavidin-coated magnetic beads (Streptomyces avidinii, UniProt P22629); experiment: Biotin affinity assay (capture of capped mRNA on streptavidin beads and elution); type: binding; conditions: capped mRNA bound to streptavidin beads, eluted at 80°C
Protocol: • 1) S1-30nt-mRNA (mRNA capped with compound S1, with a length of 30 nt) was prepared and purified by LiCl; • 2) 500 µL of streptavidin-coated magnetic beads (2 mg) were taken, and the test tube was placed on a magnetic stand to collect the magnetic beads. The supernatant was removed and discarded, and the magnetic beads were washed; • 3) The magnetic beads were resuspended in 600 µL of TES buffer, and 5.5 µg of S1-30nt-mRNA from 1) was added to the magnetic bead resuspension and mixed well; the mixture was incubated at room temperature for one hour on a shaker or vortex mixer; • 4) The sample was placed on the magnetic stand for 5 min, and after the solution became clear, the supernatant was removed; • 5) While keeping the sample on the magnetic stand, the magnetic beads were rinsed three times with TES buffer; • 6) While keeping the sample on the magnetic stand, the magnetic beads were rinsed three times with distilled water; • 7) The deionized water was removed from the beads, and 60 µL of elution buffer heated to 80°C was added and mixed well. The mixture was heated to 80°C for 3 min in a constant-temperature metal bath, then placed on the magnetic stand for 3 min. The supernatant was aspirated as the elution product. • 8) Experimental results

HEK293T cells = experiment: Expression efficiency of capped luciferase mRNAs in HEK293T cells; type: cell-based; conditions: 6 h after transfection of capped luciferase mRNA
Protocol: • 1) HNE293T cells were cultured in DMEM medium containing 10% FBS and penicillin/streptomycin at 37°C and 5% CO2. • 2) The cultured HEK293T cells were spread in a 96-well plate with 1.25 × 10^4 cells per well. • 3) After the cells completely adhered to the wall, 0.5 µg of a mixture of mRNA sample and Polyplus jet[…] was added to each well of cells, and cultured at 37°C and 5% CO2 for 6 h. • 4) The growth medium was removed from the cells to be tested and the cells were rinsed with PBS. After centrifugation to remove PBS, 50 µL of 1x lysis buffer was added thereto, and cells and all liquid were transferred to a microcentrifuge tube, and then centrifuged at 12000 x g at 4°C for 2 min. • 5) The supernatant was transferred to a new tube. Fluorescence readings were detected using the ONE-Glo Luciferase Assay System Kit.
All test compounds, N-7413, negative control and blank control were tested under the same conditions, and some experimental results in the test results are shown in Table 3. Table 3. Relative fluorescence readings for capped mRNAs
The assay was performed according to the method described in Example 21. All test compounds, N-7413, negative control and blank control were tested under the same conditions, and some experimental results in the test results are shown in Table 5. Table 5 Relative fluorescence readings for capped mRNAs

T7 RNA Polymerase = T7 RNA Polymerase (Escherichia phage T7, UniProt P00573); experiment: Detection of the efficiency of mRNA capping synthesis (in vitro transcription, product yield); type: biochemical; conditions: 20 µL mRNA synthesis reaction system
Protocol: • 1) The plasmids were linearized and the DNA templates were purified. • 2) The mRNA was synthesized by in vitro transcription, using the capping structure prepared in the present disclosure, positive control CleanCap®AG (3'OMe) (Trilink, N-7413), negative control (uncapped mRNA) and blank control (DNase/RNase-Free water), respectively. Reaction system
The reaction was carried out at 37°C for 2 to 3 h. TURBO DNase digestion was carried out for 15 min. The mRNA was precipitated by LiCl for 30 min or more or overnight, and the mRNA precipitate was washed with 75% ethanol, dried briefly to evaporate the ethanol, and the mRNA was redissolved with RNase-Free water.
In the reaction system listed in Table 1, since the solubility of different test compounds varies in different solutions, adjustments can be made as needed. For ease of operation, the commonly used concentrations are 10 mM and 100 mM. […] If the initial concentration of the test compound is 10 mM, the dosage is 8 µL. Regardless of the initial concentration, the dosages of different test compounds were the same, and the final concentrations were also the same.
For example, when testing compounds S17 and S19, their initial concentration was 10 mM, and the addition volume was 8 µL. When testing compounds 5 and 6, their initial concentration was 100 mM, and the addition volume was 0.8 µL.
The assay was performed according to the method described in Example 20.

[2] = 0.5 µg per well, reading of N-7413 = 1 (Table 3)
[3] = test compound 4 mM, 37°C 2 to 3 h (Table 2)
[4] = reading of N-7413 = 1 (Table 5)

Chain of T7 RNA Polymerase (P00573 whole entry): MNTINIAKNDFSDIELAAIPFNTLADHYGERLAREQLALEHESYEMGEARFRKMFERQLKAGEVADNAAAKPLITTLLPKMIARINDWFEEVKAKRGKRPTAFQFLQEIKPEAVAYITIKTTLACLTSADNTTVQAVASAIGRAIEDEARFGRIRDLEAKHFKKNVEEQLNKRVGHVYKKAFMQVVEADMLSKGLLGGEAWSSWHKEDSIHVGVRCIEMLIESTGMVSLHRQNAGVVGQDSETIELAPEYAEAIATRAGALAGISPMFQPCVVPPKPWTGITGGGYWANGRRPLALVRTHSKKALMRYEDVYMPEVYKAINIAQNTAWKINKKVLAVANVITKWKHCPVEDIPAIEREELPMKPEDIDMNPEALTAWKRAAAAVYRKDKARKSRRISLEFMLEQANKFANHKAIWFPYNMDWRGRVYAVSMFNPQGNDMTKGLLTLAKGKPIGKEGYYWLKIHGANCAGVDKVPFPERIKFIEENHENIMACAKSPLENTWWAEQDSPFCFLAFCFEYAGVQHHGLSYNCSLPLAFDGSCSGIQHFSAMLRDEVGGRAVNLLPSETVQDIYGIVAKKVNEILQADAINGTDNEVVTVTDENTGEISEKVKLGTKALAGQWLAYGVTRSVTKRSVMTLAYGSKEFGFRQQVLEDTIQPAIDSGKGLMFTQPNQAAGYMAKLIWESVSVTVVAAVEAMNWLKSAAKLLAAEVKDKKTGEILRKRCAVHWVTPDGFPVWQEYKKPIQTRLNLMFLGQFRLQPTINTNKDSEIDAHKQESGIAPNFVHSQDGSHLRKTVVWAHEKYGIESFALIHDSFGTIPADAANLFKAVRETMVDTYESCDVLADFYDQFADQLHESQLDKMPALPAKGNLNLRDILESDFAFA
Chain of streptavidin-coated magnetic beads (P22629 25-183): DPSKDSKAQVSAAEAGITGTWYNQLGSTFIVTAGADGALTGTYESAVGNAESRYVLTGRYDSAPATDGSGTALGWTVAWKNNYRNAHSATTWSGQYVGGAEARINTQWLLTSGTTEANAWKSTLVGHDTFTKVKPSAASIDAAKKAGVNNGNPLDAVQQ

Structure (SMILES)	recovery rate [1]	Relative fluorescence reading (HEK293T cells; [2])	Final product mass (T7 RNA Polymerase; [3]) [µg]	Relative fluorescence reading (HEK293T cells; [4])	Final product mass (T7 RNA Polymerase; method of Example 20 (Table 4)) [µg]
CO[C@@H]1[C@H](OP(=O)(O)OC[C@H]2O[C@@H](n3cnc4c(=O)[nH]c(N)nc43)[C@H](O)[C@@H]2O)[C@@H](COP(=O)(O)OP(=O)(O)OP(=O)([O-])OC[C@H]2O[C@@H](n3c[n+](C)c4c(=O)[nH]c(N)nc43)[C@H](O)[C@@H]2CNC(=O)CCCCCNC(=O)CCCC[C@@H]2SC[C@@H]3NC(=O)N[C@@H]32)O[C@H]1n1cnc2c(N)ncnc21 [Compound S3]	above 95%	2.56	137		
CO[C@@H]1[C@H](OP(=O)([O-])OC[C@H]2O[C@@H](n3cnc4c(=O)[nH]c(N)nc43)[C@H](O)[C@@H]2O)[C@@H](COP(=O)(O)OP(=O)(O)OP(=O)(O)OC[C@H]2O[C@@H](n3c[n+](C)c4c(=O)[nH]c(N)nc43)[C@H](O)[C@@H]2CC(=O)NCCNC(=O)CCCC[C@@H]2SC[C@@H]3NC(=O)N[C@@H]32)O[C@H]1n1cnc2c(N)ncnc21 [Compound S170]	above 95%	1.47	96		
CNc1nc2c(c(=O)[nH]1)[n+](C)cn2[C@@H]1O[C@H](COP(=O)(O)OP(=O)(O)OP(=O)(O)OC[C@H]2O[C@@H](n3cnc4c(N)ncnc43)[C@H](OC)[C@@H]2OP(=O)([O-])OC[C@H]2O[C@@H](n3cnc4c(=O)[nH]c(N)nc43)[C@H](O)[C@@H]2O)[C@@](F)(COC)[C@H]1O [Compound D87]				1.55	98
COCC1(F)C(COP(=O)(O)CP(=O)(O)OP(=O)(O)OCC2OC(n3cnc4c(N)ncnc43)C(OC)C2OP(=O)([O-])OCC2OC(n3cnc4c(=O)[nH]c(N)nc43)C(O)C2O)OC(n2c[n+](C)c3c(=O)[nH]c(N)nc32)C1O (stereo not shown) [Compound D23]				0.93	96
CO[C@@H]1[C@H](OP(=O)([O-])OC[C@H]2O[C@@H](n3cnc4c(=O)[nH]c(N)nc43)[C@H](O)[C@@H]2O)[C@@H](COP(=O)(O)OP(=O)(O)OP(=O)(O)OC[C@H]2O[C@@H](n3c[n+](C)c4c(=O)[nH]c(N)nc43)[C@H](O)[C@@H]2NC(=O)CCCC[C@@H]2SC[C@@H]3NC(=O)N[C@@H]32)O[C@H]1n1cnc2c(N)ncnc21 [Compound S169]	above 95%	1.35	131		
COCC1(F)C(COP(=O)(O)OP(O)(=S)OP(=O)(O)OCC2OC(n3cnc4c(N)ncnc43)C(OC)C2OP(=O)([O-])OCC2OC(n3cnc4c(=O)[nH]c(N)nc43)C(O)C2O)OC(n2c[n+](C)c3c(=O)[nH]c(N)nc32)C1O (stereo not shown) [Compound D97]				2.05	91
CO[C@@H]1[C@H](OP(=O)([O-])OC[C@H]2O[C@@H](n3cnc4c(=O)[nH]c(N)nc43)[C@H](O)[C@@H]2O)[C@@H](COP(=O)(O)OP(=O)(O)OP(=O)(O)OC[C@H]2O[C@@H](n3c[n+](C)c4c(=O)[nH]c(N)nc43)[C@H](O)[C@@H]2Cn2cc(CNC(=O)CCCC[C@@H]3SC[C@@H]4NC(=O)N[C@@H]43)nn2)O[C@H]1n1cnc2c(N)ncnc21 [Compound S41]	above 95%	1.81	126		
COCC1(N=[N+]=[N-])C(COP(=O)(O)OP(=O)(O)OP(=O)(O)OCC2OC(n3cnc4c(N)ncnc43)C(OC)C2OP(=O)([O-])OCC2OC(n3cnc4c(=O)[nH]c(N)nc43)C(O)C2O)OC(n2c[n+](C)c3c(=O)[nH]c(N)nc32)C1O (stereo not shown) [Compound D86]				1.35	111
COCC1(F)C(COP(=O)(O)OP(=O)(O)OP(=O)(O)OCC2OC(n3cnc4c(N)ncnc43)C(OC)C2OP(=O)([O-])OCC2OC(n3cnc4c(=O)[nH]c(N)nc43)C(O)C2O)OC(n2c[n+](Cc3ccc(C)cc3)c3c(=O)[nH]c(N)nc32)C1O (stereo not shown) [Compound D93]				1.95	105
